Laboratory results from the NIST ThermoML archive (doi:10.1021/acs.jced.6b00828).
± gives the expanded uncertainty stated by the source. One block for each molecule: values may come before it.

Assay: wn = mass fraction of the nth substance listed
Settings: 323.15 K, 101.3 kPa, Liquid, Vibrating tube method

SMILES: O=[PH2][O-].O=[PH2][O-].[Mg+2] [magnesium hypophosphite] + O
mass density (w1 = 0.2243): 1167.5 ± 0.4 kg/m3

mass density (w1 = 0.3732): 1343.2 ± 0.9 kg/m3
SMILES: [Cl-].[Cl-].[Mg+2] [magnesium chloride] + O

SMILES: O=[PH2][O-].[Na+] [sodium phosphinate] + O
mass density (w1 = 0.5786): 1438.8 ± 1.1 kg/m3
